Laboratory results as given in ChEMBL document CHEMBL1201862, “PubChem BioAssay data set” (2004).
Several values for one entry are separate records, joined by “and”; a condition that tells them apart may be missing. Identical values can stand only once.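 Dose response: 5 concentrations. Exposure: 48 h. Format: 96-well plates. Endpoint: linear interpolation; highest concentration if not reached. At the GI50, growth is halved.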 Activity calls are given as the source filed them. Cut-off read from the data, not from the text of the source: active = GI50 up to about 1.1 µM and inactive = higher.

Legend:
Experiment in all cases: DTP human tumour cell line panel, 48 h
EKVX = tested on: EKVX
OVCAR-4 = tested on: OVCAR-4
CCRF-CEM = tested on: CCRF-CEM
Malme-3M = tested on: Malme-3M
SK-MEL-2 = tested on: SK-MEL-2
HCT-15 = tested on: HCT-15
KM12 = tested on: KM12
M14 = tested on: M14
SNB-19 = tested on: SNB-19
BT-549 = tested on: BT-549
NCI-H522 = tested on: NCI-H522
PC-3 = tested on: PC-3
DU-145 = tested on: DU-145
HCT-116 = tested on: HCT-116
CAKI-1 = tested on: CAKI-1
TK-10 = tested on: TK-10
SNB-75 = tested on: SNB-75
LOX IMVI = tested on: LOX IMVI
UO-31 = tested on: UO-31

Structure (SMILES)	GI50 (EKVX)	GI50 (OVCAR-4)	GI50 (CCRF-CEM)	GI50 (Malme-3M)	GI50 (SK-MEL-2)	GI50 (HCT-15) [µM]	GI50 (KM12)	GI50 (M14)	GI50 (SNB-19)	GI50 (BT-549)	GI50 (NCI-H522)	GI50 (PC-3)	GI50 (DU-145)	GI50 (HCT-116)	GI50 (CAKI-1)	GI50 (TK-10)	GI50 (SNB-75)	GI50 (LOX IMVI)	GI50 (UO-31)
Cc1cn(C2CC(N(O)Cc3ccccc3)C(CO[Si](C)(C)C(C)(C)C)O2)c(=O)[nH]c1=O (configuration not stated)	25.4 µM (inactive) and 17.8 µM (inactive)	23.7 µM (inactive) and 17.4 µM (inactive)	30.1 µM (inactive)	17.9 µM (inactive)	20.3 µM (inactive)	37.2	23 µM (inactive) and 17.2 µM (inactive)	16.6 µM (inactive) and 19.5 µM (inactive)	18.6 µM (inactive) and 34.9 µM (inactive)	16.4 µM (inactive) and 16.3 µM (inactive)	18 µM (inactive)	14.5 µM (inactive) and 22.6 µM (inactive)	17.8 µM (inactive) and 25.4 µM (inactive)	16.2 µM (inactive) and 19.1 µM (inactive)	17 µM (inactive) and 26.5 µM (inactive)	–	–	–	–
O=c1oc2c/c(=C\c3ccc([N+](=O)[O-])cc3)c(=O)c3cccc1c3-2	> 100 µM (inactive)	–	36.8 µM (inactive)	> 100 µM (inactive)	> 100 µM (inactive)	> 100	83.6 µM (inactive)	> 100 µM (inactive)	> 100 µM (inactive)	54.6 µM (inactive)	28.1 µM (inactive)	> 100 µM (inactive)	> 100 µM (inactive)	> 100 µM (inactive)	–	21.9 µM (inactive)	22 µM (inactive)	35.2 µM (inactive)	> 100 µM (inactive)
CC(C)(C)C1CCC2c3c([nH]c4ccccc34)C3C(=O)N(c4ccc(C#N)cc4)C(=O)C3C2C1 (configuration not stated)	13.8 µM (inactive)	–	0.0108 µM (active)	17.3 µM (inactive)	13.1 µM (inactive)	12.1	–	16.1 µM (inactive)	34.4 µM (inactive)	15.7 µM (inactive)	–	3.66 µM (inactive)	13.6 µM (inactive)	5.43 µM (inactive)	12.3 µM (inactive)	20.3 µM (inactive)	–	13.2 µM (inactive)	7.36 µM (inactive)
O=C1CCCn2c(nc3ccccc32)N1	> 100 µM (inactive)	> 100 µM (inactive)	> 100 µM (inactive)	> 100 µM (inactive)	> 100 µM (inactive)	> 100	> 100 µM (inactive)	> 100 µM (inactive)	> 100 µM (inactive)	> 100 µM (inactive)	> 100 µM (inactive)	> 100 µM (inactive)	–	> 100 µM (inactive)	> 100 µM (inactive)	> 100 µM (inactive)	> 100 µM (inactive)	> 100 µM (inactive)	> 100 µM (inactive)
O=C(CCN1CCOCC1)c1ccc(Oc2ccc(F)cc2)cc1	19 µM (inactive)	33.6 µM (inactive)	30.8 µM (inactive)	20.4 µM (inactive)	23.6 µM (inactive)	19	17.4 µM (inactive)	18.4 µM (inactive)	> 100 µM (inactive)	18.2 µM (inactive)	–	19.2 µM (inactive)	36 µM (inactive)	22.5 µM (inactive)	18 µM (inactive)	17.9 µM (inactive)	19.6 µM (inactive)	21.8 µM (inactive)	19.7 µM (inactive)
CS(=O)(=O)c1ccc(C(=O)O[C@@H]2C(=O)N3CC[C@H]4OC(O)[C@@H]2[C@H]43)cc1 (some centres not stated)	> 100 µM (inactive)	> 100 µM (inactive)	–	–	> 100 µM (inactive)	> 100	> 100 µM (inactive)	> 100 µM (inactive)	> 100 µM (inactive)	> 100 µM (inactive)	–	> 100 µM (inactive)	> 100 µM (inactive)	64.7 µM (inactive)	> 100 µM (inactive)	> 100 µM (inactive)	58.1 µM (inactive)	> 100 µM (inactive)	> 100 µM (inactive)
Cn1c(=O)cc(NNc2ccc(Cl)c(Cl)c2)[nH]c1=O	10 µM (inactive)	10.7 µM (inactive)	13.1 µM (inactive)	> 10 µM (inactive)	16.4 µM (inactive)	3.75	12.3 µM (inactive)	5.25 µM (inactive)	32.1 µM (inactive)	16 µM (inactive)	–	12.6 µM (inactive)	17.5 µM (inactive)	7.19 µM (inactive)	14.1 µM (inactive)	16.7 µM (inactive)	23 µM (inactive)	12.2 µM (inactive)	12.1 µM (inactive)
CCOC(=O)C1=COC(C)(c2ccccc2)CC1=O (configuration not stated)	> 100 µM (inactive)	> 100 µM (inactive)	–	–	> 100 µM (inactive)	> 100	> 100 µM (inactive)	> 100 µM (inactive)	> 100 µM (inactive)	> 100 µM (inactive)	> 100 µM (inactive)	> 100 µM (inactive)	> 100 µM (inactive)	> 100 µM (inactive)	> 100 µM (inactive)	> 100 µM (inactive)	> 100 µM (inactive)	–	> 100 µM (inactive)
Cc1cc(NS(=O)(=O)c2ccc(NO)cc2)no1	> 100 µM (inactive)	67.3 µM (inactive)	8.65 µM (inactive)	> 100 µM (inactive)	> 100 µM (inactive)	32.4	63.4 µM (inactive)	70.6 µM (inactive)	> 100 µM (inactive)	> 100 µM (inactive)	–	> 100 µM (inactive)	> 100 µM (inactive)	28.5 µM (inactive)	> 100 µM (inactive)	> 100 µM (inactive)	43.7 µM (inactive)	17.9 µM (inactive)	> 100 µM (inactive)
CC(C)=C1C(=O)C[C@]2(C)C[C@H]3/C(=C(/C)CCC12)CC[C@@]3(C)O (some centres not stated)	> 50 µM (inactive)	> 50 µM (inactive)	20.3 µM (inactive)	–	> 50 µM (inactive)	40.1	18.2 µM (inactive)	> 50 µM (inactive)	> 50 µM (inactive)	> 50 µM (inactive)	29 µM (inactive)	30.7 µM (inactive)	> 50 µM (inactive)	46.2 µM (inactive)	> 50 µM (inactive)	> 50 µM (inactive)	19.1 µM (inactive)	> 50 µM (inactive)	> 50 µM (inactive)
C=CCOCn1ccc(NC(=O)c2ccccc2)nc1=O	> 100 µM (inactive)	–	> 100 µM (inactive)	> 100 µM (inactive)	–	> 100	> 100 µM (inactive)	> 100 µM (inactive)	> 100 µM (inactive)	> 100 µM (inactive)	> 100 µM (inactive)	> 100 µM (inactive)	> 100 µM (inactive)	> 100 µM (inactive)	> 100 µM (inactive)	> 100 µM (inactive)	> 100 µM (inactive)	> 100 µM (inactive)	> 100 µM (inactive)
O=c1c(/C=C/c2c(O)ccc3ccccc23)nnc2sc(-c3cccc(Br)c3)nn12	16.7 µM (inactive)	4.8 µM (inactive)	3.82 µM (inactive)	23 µM (inactive)	23.6 µM (inactive)	6.78	20.7 µM (inactive)	15.8 µM (inactive)	39 µM (inactive)	11.6 µM (inactive)	15.5 µM (inactive)	22.4 µM (inactive)	16.1 µM (inactive)	22.5 µM (inactive)	15.3 µM (inactive)	–	–	4.88 µM (inactive)	13.4 µM (inactive)
O=[N+]([O-])c1cccc(-c2ncnc(-c3cccc([N+](=O)[O-])c3)n2)c1	> 100 µM (inactive)	–	–	> 100 µM (inactive)	51.5 µM (inactive)	–	> 100 µM (inactive)	> 100 µM (inactive)	–	32.2 µM (inactive)	38.5 µM (inactive)	> 100 µM (inactive)	> 100 µM (inactive)	> 100 µM (inactive)	18.4 µM (inactive)	44.5 µM (inactive)	26.7 µM (inactive)	> 100 µM (inactive)	> 100 µM (inactive)
CN(C)Cc1cc(/N=N/c2ccccc2)ccc1O	40 µM (inactive)	–	42.3 µM (inactive)	47.3 µM (inactive)	38.9 µM (inactive)	43.1	34.6 µM (inactive)	38.9 µM (inactive)	> 100 µM (inactive)	30.8 µM (inactive)	29.6 µM (inactive)	75.7 µM (inactive)	22.7 µM (inactive)	> 100 µM (inactive)	62.4 µM (inactive)	34.6 µM (inactive)	10 µM (inactive)	26.7 µM (inactive)	21.9 µM (inactive)
Nc1nc(-c2ccccc2)cc(-c2ccc(F)cc2)c1-c1ccc(Cl)cc1	> 100 µM (inactive)	88.9 µM (inactive)	33.2 µM (inactive)	> 100 µM (inactive)	> 100 µM (inactive)	> 100	> 100 µM (inactive)	> 100 µM (inactive)	> 100 µM (inactive)	> 100 µM (inactive)	–	> 100 µM (inactive)	> 100 µM (inactive)	> 100 µM (inactive)	> 100 µM (inactive)	> 100 µM (inactive)	> 100 µM (inactive)	> 100 µM (inactive)	> 100 µM (inactive)
COc1ccc(/N=N/N2CCCC2)cc1	19.7 µM (inactive)	18.6 µM (inactive)	16.7 µM (inactive)	17.6 µM (inactive)	> 100 µM (inactive)	22.6	0.305 µM (active)	44.8 µM (inactive)	> 100 µM (inactive)	23.2 µM (inactive)	12.9 µM (inactive)	36.5 µM (inactive)	> 100 µM (inactive)	20.1 µM (inactive)	16.2 µM (inactive)	57.1 µM (inactive)	–	16.1 µM (inactive)	31.9 µM (inactive)
